Reference: ChEMBL document CHEMBL1671724, “IncI1 plasmid carrying extended-spectrum-beta-lactamase gene blaCTX-M-1 in Salmonella enterica isolates from poultry and humans in France, 2003 to 2008” (2010)
Values after ≈ are worked out from the molar mass of the structure shown.

Key:
[1] = Antimicrobial activity against Salmonella Newport 03-8748 by Etest; type: functional, Salmonella enterica subsp. enterica serovar Newport; details: Salmonella enterica
[2] = tested on: Escherichia coli; test: Antimicrobial activity against Escherichia coli 03-8748TC1 transconjugant expressing IncI1 plasmid-encoded beta lactamase CTX-M-1 by Etest; type: functional
[3] = tested on: Salmonella typhimurium; test: Antimicrobial activity against Salmonella Typhimurium 05-9280 by Etest; type: functional, Salmonella enterica subsp. enterica serovar Typhimurium; details: Salmonella enterica
[4] = tested on: Escherichia coli; test: Antimicrobial activity against Escherichia coli 05-9280TC1 transconjugant expressing IncI1 plasmid-encoded beta lactamase CTX-M-1 by Etest; type: functional
[5] = tested on: Salmonella; test: Antimicrobial activity against Salmonella Llandoff 06CEB6542SAL by Etest; type: functional
[6] = tested on: Escherichia coli; test: Antimicrobial activity against Escherichia coli 06CEB6542SALTC1 transconjugant expressing IncI1 plasmid-encoded beta lactamase CTX-M-1 by Etest; type: functional
[7] = tested on: Salmonella typhimurium; test: Antimicrobial activity against Salmonella Typhimurium 06-6550 by Etest; type: functional, Salmonella enterica subsp. enterica serovar Typhimurium; details: Salmonella enterica
[8] = tested on: Escherichia coli; test: Antimicrobial activity against Escherichia coli 06-6550TC1 transconjugant expressing IncI1 plasmid-encoded beta lactamase CTX-M-1 by Etest; type: functional
[9] = Antimicrobial activity against Salmonella London 07-819 by Etest; type: functional, Salmonella enterica subsp. enterica serovar London; details: Salmonella enterica
[10] = tested on: Escherichia coli; test: Antimicrobial activity against Escherichia coli 07-819TC1 transconjugant expressing IncI1 plasmid-encoded beta lactamase CTX-M-1 by Etest; type: functional
[11] = tested on: Salmonella typhimurium; test: Antimicrobial activity against Salmonella Typhimurium 08-843 by Etest; type: functional, Salmonella enterica subsp. enterica serovar Typhimurium; details: Salmonella enterica
[12] = tested on: Escherichia coli; test: Antimicrobial activity against Escherichia coli 08-843TC1 transconjugant expressing IncI1 plasmid-encoded beta lactamase CTX-M-1 by Etest; type: functional
[13] = tested on: Salmonella typhimurium; test: Antimicrobial activity against Salmonella Typhimurium 08-1537 by Etest; type: functional, Salmonella enterica subsp. enterica serovar Typhimurium; details: Salmonella enterica
[14] = tested on: Escherichia coli; test: Antimicrobial activity against Escherichia coli 08-1537TC1 transconjugant expressing IncI1 plasmid-encoded beta lactamase CTX-M-1 by Etest
[15] = tested on: Salmonella typhimurium; test: Antimicrobial activity against Salmonella Typhimurium 08-1745 by Etest; type: functional, Salmonella enterica subsp. enterica serovar Typhimurium; details: Salmonella enterica
[16] = tested on: Salmonella typhimurium; test: Antimicrobial activity against Salmonella Typhimurium 08-2211 by Etest; type: functional, Salmonella enterica subsp. enterica serovar Typhimurium; details: Salmonella enterica
[17] = Antimicrobial activity against Salmonella 4,5,12:i:- 08-2712 by Etest; type: functional, Salmonella enterica subsp. enterica serovar 4,[5],12:i:-; details: Salmonella enterica
[18] = tested on: Escherichia coli; test: Antimicrobial activity against Escherichia coli 08-2712TC1 transconjugant expressing IncI1 plasmid-encoded beta lactamase CTX-M-1 by Etest

Structure (SMILES) | MIC [1] | MIC [2] | MIC [3] | MIC [4] | MIC [5] | MIC [6] | MIC [7] | MIC [8] | MIC [9] | MIC [10] | MIC [11] | MIC [12] | MIC [13] | MIC [14] | MIC [15] | MIC [16] | MIC [17] | MIC [18]
CO/N=C(\C(=O)N[C@@H]1C(=O)N2C(C(=O)O)=C(CSc3nc(=O)c(O)nn3C)CS[C@H]12)c1csc(N)n1 [CEFTRIAXONE] | 8 µg/mL (≈ 14.4 µM) | 2 µg/mL (≈ 3.61 µM) | 32 µg/mL (≈ 57.7 µM) | 32 µg/mL (≈ 57.7 µM) | 4 µg/mL (≈ 7.21 µM) | 0.5 µg/mL | 16 µg/mL (≈ 28.9 µM) | 4 µg/mL (≈ 7.21 µM) | 8 µg/mL (≈ 14.4 µM) | 4 µg/mL (≈ 7.21 µM) | 16 µg/mL (≈ 28.9 µM) | 8 µg/mL (≈ 14.4 µM) | 64 µg/mL (≈ 115 µM) | 8 µg/mL (≈ 14.4 µM) | 16 µg/mL (≈ 28.9 µM) | 8 µg/mL (≈ 14.4 µM) | 16 µg/mL (≈ 28.9 µM) | 8 µg/mL (≈ 14.4 µM)
CC(C)(O/N=C(\C(=O)N[C@@H]1C(=O)N2C(C(=O)[O-])=C(C[n+]3ccccc3)CS[C@H]12)c1csc(N)n1)C(=O)O [CEFTAZIDIME] | > 256 µg/mL | 256 µg/mL (≈ 468 µM) | > 256 µg/mL | > 256 µg/mL | 64 µg/mL (≈ 117 µM) | 8 µg/mL | 256 µg/mL (≈ 468 µM) | 64 µg/mL (≈ 117 µM) | > 256 µg/mL | 256 µg/mL (≈ 468 µM) | 256 µg/mL (≈ 468 µM) | 256 µg/mL (≈ 468 µM) | > 256 µg/mL | 128 µg/mL (≈ 234 µM) | > 256 µg/mL | 256 µg/mL (≈ 468 µM) | 256 µg/mL (≈ 468 µM) | 64 µg/mL (≈ 117 µM)
